± gives the uncertainty stated by the source.
Test: xn = mol fraction of the nth substance listed

C=CC[n+]1ccn(C)c1.[Cl-] + O
101 kPa
Settings | viscosity [mPa·s]
298.15 K, x2 = 0.193 | 697 ± 28
298.15 K, x2 = 0.267 | 427 ± 15
303.15 K, x2 = 0.335 | 184 ± 12
313.15 K, x2 = 0.045 | 473 ± 42
313.15 K, x2 = 0.126 | 312 ± 10
323.15 K, x2 = 0.335 | 61 ± 3
333.15 K, x2 = 0.091 | 108 ± 5
353.15 K, x2 = 0.126 | 36.9 ± 0.8
353.15 K, x2 = 0.267 | 24.3 ± 0.5
363.15 K, x2 = 0.091 | 28.6 ± 0.9
363.15 K, x2 = 0.126 | 25.6 ± 0.6
373.15 K, x2 = 0.126 | 18.58 ± 0.41
373.15 K, x2 = 0.193 | 15.98 ± 0.35
373.15 K, x2 = 0.267 | 13.37 ± 0.29

CCCCCCCCCCCn1cc[n+](C)c1.O=S(=O)([N-]S(=O)(=O)C(F)(F)F)C(F)(F)F + O
Settings | viscosity [mPa·s]
338.15 K, 100 kPa, x2 = 0.1567 | 20.54 ± 0.18

CCCC[n+]1ccn(C)c1.N#C[N-]C#N + O
100 kPa, x1 = 0.6252
Settings | viscosity [mPa·s]
303 K | 15.03 ± 0.33
308 K | 12.94 ± 0.28
313 K | 11.27 ± 0.25
318 K | 9.91 ± 0.21
323 K | 8.77 ± 0.19

CCCC[n+]1ccn(C)c1.N#C[S-] + O
101 kPa
Settings | electrical conductivity [S/m] | viscosity [mPa·s]
298.15 K, x1 = 0.0004503 | 0.224 ± 0.001 | –
298.15 K, x1 = 0.0009182 | 0.395 ± 0.001 | –
298.15 K, x1 = 0.001853 | 0.716 ± 0.001 | –
298.15 K, x1 = 0.00477 | 1.451 ± 0.001 | –
298.15 K, x1 = 0.00776 | 1.952 ± 0.001 | –
298.15 K, x1 = 0.01001 | 2.3 ± 0.001 | –
298.15 K, x2 = 0.2007 | – | 33 ± 2.1
298.15 K, x2 = 0.3169 | – | 25.9 ± 1.6
298.15 K, x2 = 0.9437 | 4.47 ± 0.001 | –
298.15 K, x2 = 0.9626 | 4.02 ± 0.001 | –
298.15 K, x2 = 0.9781 | 3.33 ± 0.001 | –
308.15 K, x2 = 0.2007 | – | 22.5 ± 1.4
318.15 K, x2 = 0.2007 | – | 16.2 ± 1
318.15 K, x2 = 0.3169 | – | 13.24 ± 0.83
318.15 K, x2 = 0.7201 | – | 4.66 ± 0.29
328.15 K, x2 = 0 | – | 16.7 ± 1
328.15 K, x2 = 0.0998 | – | 14.22 ± 0.89
328.15 K, x2 = 0.6426 | – | 4.71 ± 0.29
328.15 K, x2 = 0.7201 | – | 3.65 ± 0.23
338.15 K, x2 = 0.3169 | – | 7.96 ± 0.5
338.15 K, x2 = 0.5296 | – | 5.12 ± 0.32
338.15 K, x2 = 0.7949 | – | 2.23 ± 0.14
348.15 K, x2 = 0.5296 | – | 4.16 ± 0.26

CCCCn1cc[n+](CCCC)c1.O=S(=O)([N-]S(=O)(=O)C(F)(F)F)C(F)(F)F + O
100 kPa, x2 = 0.1843
Settings | viscosity [mPa·s]
308.15 K | 32.12 ± 0.28
358.15 K | 7.83 ± 0.07
363.15 K | 7.07 ± 0.06

CCOS(=O)(=O)[O-].CC[N+]1(C)CCCC1 + O
101 kPa
Settings | viscosity [mPa·s]
313.15 K, x2 = 0 | 78 ± 13
313.15 K, x2 = 0.105 | 65 ± 10
318.15 K, x2 = 0 | 65 ± 10
318.15 K, x2 = 0.7542 | 8.9 ± 1.4
323.15 K, x2 = 0.7542 | 7.7 ± 1.2
333.15 K, x2 = 0.9652 | 0.99 ± 0.16
338.15 K, x2 = 0.6505 | 7.7 ± 1.2
338.15 K, x2 = 0.9652 | 0.98 ± 0.16
343.15 K, x2 = 0.6505 | 6.6 ± 1.1
343.15 K, x2 = 0.9652 | 0.98 ± 0.16

CC[NH+](CC)CC.O=S(=O)([O-])O + O
298.15 K, 101 kPa
Settings | viscosity [mPa·s]
x2 = 0.3012 | 184 ± 19
x2 = 0.4244 | 169 ± 17
x2 = 0.6124 | 140 ± 13
x2 = 0.7344 | 110.8 ± 9.6
x2 = 0.9244 | 39.8 ± 2.8

CCCO + O + CCCCCCCCCCCCOS(=O)(=O)[O-].[Na+]
298 K, 100 kPa, frequency 0.001 MHz
Settings | electrical conductivity [S/m]
x1 = 0.01544, x3 = 0 | 0.00015
x1 = 0.02615, x2 = 0.9739 | 0.00015
x1 = 0.04738, x2 = 0.9526 | 0.00011
x1 = 0.07176, x2 = 0.9282 | 0.00012
x1 = 0.1087, x2 = 0.8913 | 0.00014

CC(=O)[O-].[K+] + O + CCCC[n+]1ccn(C)c1.N#C[S-]
viscosity [mPa·s], 101 kPa
Settings | 298.15 K | 308.15 K | 313.15 K
x1 = 0.01175, x2 = 0.8368 | – | – | 4.625 ± 0.064
x1 = 0.1054, x2 = 0.8943 | 3.195 ± 0.029 | 2.485 ± 0.023 | –

CC(=O)[O-].[K+] + O + CCCC[n+]1ccn(C)c1.O=S(=O)([O-])C(F)(F)F
Settings | viscosity [mPa·s]
308.15 K, 101 kPa, x1 = 0.01574, x2 = 0.9011 | 1.515 ± 0.014

Reference: the CheMixHub ionic liquid set
